Earlier results as cited in the CATMoS acute toxicity set (Mansouri et al. 2021).
“And” between values parts separate entries of the source, which are not always exact repeats. Identical values can stand only once.

Experiment: rat acute oral toxicity
Details: in vivo

SMILES | LD50
CSC(C)(C)C=NOC(=O)N(C)SN(C)Cc1ccccc1 | 9.4 mg/kg
CC(C)(C)C(O)C(=Cc1ccc(Cl)cc1Cl)n1cncn1 (configuration not stated) | 474 mg/kg
CCc1cccc2cc(C(O)CNC(C)(C)C)oc12 (configuration not stated) | 750 mg/kg
C=C(C)C(=O)OCCC[Si](OC)(OC)OC | 23500 mg/kg
Cc1ccccn1 | 790 mg/kg
CCN(N=O)C(=O)NC(N)=O | 1050 mg/kg
Cc1ccc(Cc2ccc(C)cc2)cc1 | 3800 mg/kg and 1700 mg/kg
Nc1nc(=S)ss1 | 3050 mg/kg
CN(C(=O)CN(CCO)CC(=O)N(C)C(C)(C)Cc1ccccc1)C(C)(C)Cc1ccccc1 | 1000 mg/kg and 675 mg/kg
Cc1cc(C(C)(C)C)cc(C)c1CC1=NCCN1 | 230 mg/kg
CCC(CC)c1cccc(OC(=O)NC)c1 | 87 mg/kg
Nc1ccc(-c2ccc(N)cc2)cc1 | 309 mg/kg
CN(CO)C(=O)Oc1cccc2ccccc12 | 5360 mg/kg
O=S(=O)(O)c1cc(Cl)ccc1C=Cc1ccc(-n2nc3cc(S(=O)(=O)O)c4ccccc4c3n2)cc1S(=O)(=O)O | 13700 mg/kg
CC(C)(C)c1nnc(NS(=O)(=O)c2ccccc2)s1 | 500 mg/kg
CC(O)c1ccccc1 (configuration not stated) | 400 mg/kg
CNC(=S)N(C)C | 316 mg/kg
c1ccc(Nc2ccc3ccccc3c2)cc1 | 8730 mg/kg
CC(C(=O)O)c1ccc2c(c1)OCc1ccccc1C2=O (configuration not stated) | 34 mg/kg
CC(C#N)N1CCOCC1 (configuration not stated) | 87 mg/kg
Sc1nc2ccccc2s1 | 100 mg/kg
FC(F)(F)c1nc2c(Cl)cc(Cl)c(Cl)c2[nH]1 | 6.33 mg/kg
CN(C)S(=O)(=O)c1cc(Cl)c(N)cc1Cl | 4090 mg/kg
O=S(=O)(O)c1ccccc1 | 2050 mg/kg
CNC(=N)NC(=O)Nc1c(C)cccc1C | 187 mg/kg and 184 mg/kg
NS(=O)(=O)C1CCCCC1 | 80 mg/kg

SMILES | LD50
O=Cc1cccc2ccccc12 | 667 mg/kg
C=COCCSCCCC | 2830 mg/kg
OC(CN1CCCCC1)c1cc(-c2ccccc2)on1 (configuration not stated) | 1980 mg/kg
CC(c1ccccc1)c1ccccc1CCl (configuration not stated) | 4700 mg/kg
O=S(=O)(O)CCS | 4440 mg/kg
Nc1ccc([N+](=O)[O-])c(N)c1 | 4500 mg/kg
CNC(C)Cc1ccccc1 (racemic) | 29 mg/kg
CCCCC/C(=C/c1ccccc1)CO | 4000 mg/kg
CCCC(C(=O)OCCN(CC)CC)(c1ccccc1)c1ccccc1 | 2140 mg/kg
O=C1C2C3CCC(C3)C2C(=O)N1CCCCN1CCN(c2ncccn2)CC1 (configuration not stated) | 590 mg/kg
CCCCCCCCCCCCCOCCOCCOCCOCCOCCOCCO | 1400 mg/kg
CCC(O)OC(C)(C)C (configuration not stated) | 2520 mg/kg
ClC=C(Cl)CCl | 616 mg/kg
NC(=O)C(c1ccccc1)c1ccccc1 | 600 mg/kg
O=C1CCc2cc(C(=O)CCN3CCN(c4ccccc4)CC3)ccc2N1 | 500 mg/kg
Nc1ccc(O)c(Cc2cc(N)ccc2O)c1 | 25 mg/kg
COP(=O)(SC)c1ccccc1 (configuration not stated) | 55.3 mg/kg
CCCCCCOC(C[n+]1ccccc1)c1ccc(C2CCCCC2)cc1 (configuration not stated) | 250 mg/kg
Cc1cc(Cl)ccc1N | 1060 mg/kg
CC(C)NCC(O)COc1cccc2[nH]ccc12 (configuration not stated) | 263 mg/kg
COc1ccc(C(OC)C2CCCCC2N2CCCCC2)cc1 (configuration not stated) | 92 mg/kg
c1cncc(CSSCc2cccnc2)c1 | 2150 mg/kg
O=C1CCc2cc(C(=O)CCCN3CCN(c4ccccc4)CC3)ccc2N1 | 500 mg/kg
CCCCN(CCCC)CC(C)O (configuration not stated) | 1990 mg/kg
CSC(C)=NOC(=O)N(C)SN(C)C(=O)Oc1ccc(OC(=O)N(C)SN(C)C(=O)ON=C(C)SC)cc1 | 453 mg/kg
COP(=S)(OC)SCC(N)=O | 925 mg/kg

SMILES | LD50
Cc1ncc([N+](=O)[O-])n1CC(O)CCl (configuration not stated) | 1780 mg/kg
Cc1ncc(CSSCc2cnc(C)c(O)c2C)c(C)c1O | 2150 mg/kg
CNC(C)CC1CCCCC1 (configuration not stated) | 83 mg/kg
CCC(Cl)Cl | 6500 mg/kg
NCC1CCC=CO1 (configuration not stated) | 1000 mg/kg
CC(=O)OC(OC(C)=O)C(Cl)CCl (configuration not stated) | 320 mg/kg
O=C(Cc1ccc(-c2ccccc2)cc1)Nc1ccccn1 | 1860 mg/kg
CNC(=S)NNc1cc(C(F)(F)F)cc(C(F)(F)F)c1 | 414 mg/kg
CS(=O)C(C)(C)C(=O)O (configuration not stated) | 7500 mg/kg
Cc1ccc(-c2ccccc2)cc1 | 2570 mg/kg
CON(C)C(=O)/C=C(\C)OP(=O)(OC)OC | 2 mg/kg
Cc1cc(C)nc(Nc2ccccc2)n1 | 4150 mg/kg
CCOP(=S)(OCC)SCSc1cc(Cl)ccc1Cl | 44 mg/kg
CCOP(=S)(OCC)Oc1cnc2ccccc2n1 | 26 mg/kg
CCOP(=S)(OCC)SC(=O)CN(C)C(N)=O | 16 mg/kg
C=C(C)C(=O)OCCN(CC)CC | 4700 mg/kg
CC(C1=C(CCN(C)C)Cc2ccccc21)c1ccccn1 (configuration not stated) | 618 mg/kg
CN(CCO)c1ccc(N=Nc2c(Cl)cc([N+](=O)[O-])cc2Cl)cc1 | 2820 mg/kg
FC(F)(F)C(F)(F)C(F)(F)C(F)(F)C(F)(F)C(F)(F)C(F)(F)C[n+]1ccccc1 | 1160 mg/kg
COCCc1ccc(OCC(O)CNC(C)C)cc1 (configuration not stated) | 3470 mg/kg
CCCCOC(=O)CCC(=O)OCCCC | 8000 mg/kg
COC(=O)c1ccc(C(=O)OC)cc1 | 4390 mg/kg
S=P(N1CC1)(N1CC1)N1CC1 | 23 mg/kg
COC(=O)Nc1nc2ccccc2n1C(=O)NCCCCCC#N | 2500 mg/kg
CCC(C)NP1(=S)OCc2cc([N+](=O)[O-])ccc2O1 (configuration not stated) | 125 mg/kg
CC(C)CC(C)CC(CC(C)C)OCCO (configuration not stated) | 5650 mg/kg

SMILES | LD50
C=CN(C(C)=O)c1ccccc1 | 2460 mg/kg
CCCCN(CC)c1c([N+](=O)[O-])cc(C(F)(F)F)cc1[N+](=O)[O-] | 10000 mg/kg
Nc1nncs1 | 253 mg/kg
O=P(OC=C(Cl)Cl)(OCCCl)OCCCl | 25 mg/kg
c1cc2c(c(NC3=NCCN3)c1)CCC2 | 481 mg/kg
CCCC(C)OP(=S)(OC)OC (configuration not stated) | 311 mg/kg
COc1ccc([N+](=O)[O-])cc1 | 2300 mg/kg
CC1(C)C(=O)[C@@]2(C)CC[C@@H]1C2 | 6160 mg/kg
O=C(Oc1cccc(O)c1)c1ccccc1 | 800 mg/kg
COc1ccc(C(=O)CCC(=O)O)c2ccccc12 | 1800 mg/kg
O=C1C(Cl)C2(Cl)C3C(Cl)OC(Cl)C3C1(Cl)C2(Cl)Cl (configuration not stated) | 7 mg/kg
[N-]=[N+]=NC1CCCCC1=NO (configuration not stated) | 1120 mg/kg
COC(OC)c1ccccc1 | 1220 mg/kg
Cc1cc(C2(c3ccc(O)c(C)c3)C(=O)Nc3ccccc32)ccc1O | 520 mg/kg
O=CCCCC(O)C=O (configuration not stated) | 17000 mg/kg
COc1cc(CCC(C)=O)ccc1O | 2580 mg/kg
CC(C=CC=C(C)C(=O)OC1OC(COC2OC(CO)C(O)C(O)C2O)C(O)C(O)C1O)=CC=CC=C(C)C=CC=C(C)C(=O)OC1OC(COC2OC(CO)C(O)C(O)C2O)C(O)C(O)C1O (configuration not stated) | 3160 mg/kg
NC(=O)Cc1cccc2ccccc12 | 1690 mg/kg
CNC(=O)Oc1ccc(O)c2ccccc12 | 1190 mg/kg
O=C1CCC2CCCCC2O1 (configuration not stated) | 3900 mg/kg
CC(C)CCCCCOC(=O)COc1ccc(Cl)cc1Cl | 982 mg/kg
CN1CCC(CN2c3ccccc3Sc3ccccc32)C1 (configuration not stated) | 260 mg/kg and 162 mg/kg
C=COCCSCC | 4920 mg/kg
Cc1ccc(NC(=O)CF)cc1 | 7 mg/kg
CN(C)CCCOc1nn(Cc2ccccc2)c2ccccc12 | 740 mg/kg and 950 mg/kg
CCN(O)CC | 2190 mg/kg

SMILES | LD50
O=C(Nc1cc(Cl)cc(Cl)c1O)c1c(O)c(Cl)cc(Cl)c1Cl | 1000 mg/kg
CCCCCCCCc1ccc(-c2ccc(C#N)cc2)cc1 | 2200 mg/kg
O=C(Cl)CCCCCCCCC(=O)Cl | 400 mg/kg
Cc1noc(NS(=O)(=O)c2ccc(N)cc2)c1C | 10000 mg/kg
COc1c(OC)c(Cl)c2[nH]c(C(F)(F)F)nc2c1Cl | 100 mg/kg
NC(=O)C(O)(c1ccccc1)c1ccccc1 | 1550 mg/kg
CN1CCC(=C2c3ccccc3CCc3sccc32)CC1 | 410 mg/kg
CN1CCN(CCCN2c3ccccc3Sc3ccc(C(F)(F)F)cc32)CC1 | 543 mg/kg
CCN(CC)CCSSCCN(CC)CC | 340 mg/kg
Nc1nc2ccc(Cl)cc2o1 | 226 mg/kg
O=C1NC(CCCl)Oc2ccccc21 (configuration not stated) | 10000 mg/kg
COc1ccc2c(c1)c(CC(=O)Oc1cccc(C)c1)c(C)n2C(=O)c1ccc(Cl)cc1 | 98 mg/kg
O=[N+]([O-])c1ccccc1-c1ccccc1 | 1230 mg/kg
O=C(O)c1ccccc1-c1ccccc1CO | 6500 mg/kg
Cc1nc(NCc2ccccc2)c2cc[nH]c2n1 | 80 mg/kg
CC(C)Cc1ccc2ccccc2n1 | 1020 mg/kg
CCCN(C)C | 500 mg/kg
Oc1ccc(Nc2ccc3ccccc3c2)cc1 | 5200 mg/kg
ClCc1cccc2ccccc12 | 890 mg/kg
CCCN(CCC)S(=O)(=O)c1ccc(C(=O)O)cc1 | 1600 mg/kg
CC1=CCC(=O)O1 | 3900 mg/kg
CN1CC2=C(C1)CN(c1c(F)cc3c(=O)c(C(=O)O)cn(C4CC4)c3c1F)C2 | 1060 mg/kg
CC(CN1c2ccccc2Sc2cccnc21)N(C)C (configuration not stated) | 1220 mg/kg
C1C[C@H]2C[C@@H]1[C@H]1SSS[C@@H]21 | 300 mg/kg
CC(C)[C@]12CC(=O)[C@H](C)[C@H]1C2 | 500 mg/kg
CC1CCC(=O)CC1 | 800 mg/kg

SMILES | LD50
CC(=O)Nc1ccc([N+](=O)[O-])c(Cl)n1 | 1940 mg/kg
COC1CC(=C(c2cccs2)c2cccs2)C[N+](C)(C)C1 (configuration not stated) | 1210 mg/kg
Cc1cccc(C)c1CCNC(N)=O | 1500 mg/kg
CN1CCC(OC2c3ccccc3CCc3ccccc32)CC1 | 1500 mg/kg
CCCOP(=O)(OCCC)Oc1ccc2c(C)c(Cl)c(=O)oc2c1 | 80 mg/kg
O=C(O)C1=CCCN(CCOC(c2ccc(C(F)(F)F)cc2)c2ccc(C(F)(F)F)cc2)C1 | 894 mg/kg
CC1CCCCN1CCCOC(=O)c1ccc(OC2CCCCC2)cc1 (configuration not stated) | 2340 mg/kg
CNC(=O)ON=C1SCC(=O)NC1C (configuration not stated) | 5.66 mg/kg
CN1CCN(C2=Nc3ccccc3Sc3ccc(Cl)cc32)CC1 | 280 mg/kg
CCOP(=S)(OCC)N(SN(C)C(=O)ON=C(C)SC)C(C)C | 325 mg/kg
CNCCCC12CCC(c3ccccc31)c1ccccc12 | 760 mg/kg
NC(=S)NC(N)=S | 5 mg/kg
CN(C)C(=O)n1c(Br)nc(Br)c1Br | 50 mg/kg
O=C1C(=C(Cl)Cl)C(=O)C2(Cl)C3C=CC(C3)C12Cl (configuration not stated) | 2760 mg/kg
CCCCC(CC)COCCC#N (configuration not stated) | 4920 mg/kg
CCOC(=O)N1C(=O)NC(c2ccccc2)(c2ccccc2)C1=O | 3500 mg/kg
CCCCC(CC)COCCO (configuration not stated) | 3080 mg/kg
O=S1(=O)CCC(Br)C1 (configuration not stated) | 215 mg/kg
CCOc1cc2c(cc1OCC)C1CC(=O)C(CCC#N)CN1CC2 (configuration not stated) | 780 mg/kg
Cc1cccc(C)c1N/N=C(/N)N(C)C | 980 mg/kg
CN(C)CCOC(C)(c1ccccc1)c1ccc(Cl)cc1 (configuration not stated) | 1000 mg/kg
COc1ccc2c(-c3ccc(OCC(O)CNC(C)C)cc3)c(-c3ccccc3)c(=O)oc2c1 (configuration not stated) | 1000 mg/kg
